#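 A five-concentration, 48-hour dose response in 96-well plates underlies each endpoint, interpolated linearly between surrounding concentrations. Here, GI50 denotes the concentration required for 50% inhibition of growth. At the TGI there is no net growth.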
# Tested on: MDA-MB-468 breast
# Test: NCI-60 cell line screen, 48 h
Structure (SMILES),GI50,TGI
CCOC(=O)C#Cc1c(C(=O)OCC)nnn1[C@@H]1O[C@H](CO)[C@H]2OC3(CCCCC3)O[C@H]21,1.78 µM,3.89 µM
Nc1ccc(-c2ccc3ncc4ccc(=O)n(-c5cccc(C(F)(F)F)c5)c4c3c2)cn1,< 0.01 µM,0.0431 µM
CCc1nc2cc(/C=C/C(=O)NO)ccc2c(=O)n1CCc1ccc(OC)cc1,1.69 µM,5.57 µM
COc1cc(CN(c2ccc(C)cc2)C2OC(=O)c3ccccc32)cc(OC)c1OC (stereo not drawn),0.132 µM,0.527 µM
O=C(O)Cn1ccc2ccccc21,> 100 µM,> 100 µM
O=C(Nc1ccc2c(c1)OCCO2)C(=O)c1c[nH]c2ccccc12,1.09 µM,20.7 µM
O=C1Nc2ccccc2/C1=C/c1cn(CC(O)Cn2cc(/C=C3\C(=O)Nc4ccccc43)c3ccccc32)c2ccccc12 (stereo not drawn),2.03 µM,3.75 µM
Oc1c(O)c(Cl)c(Cl)c(Cl)c1Cl,2.58 µM,7.34 µM
Cn1cncc1-c1c(F)cncc1NC(=O)c1c(N)nn2cc(F)cnc12,1.96 µM,16.2 µM
O=C(CSc1nc2sc3c(c2c(=O)n1-c1ccc(Cl)cc1)CCCC3)NNC(=O)Nc1cccc(C(F)(F)F)c1,2.21 µM,5.36 µM
COc1cc(-c2cc3ncccc3c3[nH]c(=O)c4cccnc4c23)cc(OC)c1OC,1.61 µM,96.1 µM
CCCCN1C(=O)/C(=c2\sc3n(c2=O)C2C(NN=3)N(CC)C(=O)N2CC)c2ccccc21 (stereo not drawn),0.361 µM,2.39 µM
CC(=O)O[C@H](C[C@H](C(C)C)N(C)C(=O)[C@@H](NC(=O)[C@H]1CCCCN1C)C(C)C)c1cccc(C(=O)N[C@@H](Cc2ccccc2)C[C@H](C)C(=O)O)n1,0.00539 µM,0.102 µM
COc1ccc(-c2nn3ncccc3c2-c2ccnc(Nc3ccc4c(c3)OCCO4)n2)cc1,4 µM,> 21.1 µM
COc1cccc(NC(=O)c2sc3nc4c(cc3c2N)C(O)CCC4)c1 (stereo not drawn),0.0881 µM,6.7 µM
NC(CSC(c1ccccc1)(c1ccccc1)c1ccc(F)cc1)C(=O)O (stereo not drawn),0.233 µM,
COc1ccc2c(c1)O/C(=C\c1cccc(OCC(=O)Nc3nc(C)c(C)s3)c1)C2=O,0.274 µM,2.12 µM
CCN(CC)c1ccc2nc3ccc(N=Nc4ccc(O)cc4)cc3[n+](-c3ccccc3)c2c1,1.47 µM,3.61 µM
COc1ccc(-c2n[nH]nc2-c2cc(OC)c3c(c2)OCO3)cc1,0.023 µM,42.6 µM
CCc1nn2ncccc2c1-c1ccnc(NC2CC2)n1,> 21.2 µM,> 25 µM
Cc1nc(Sc2nc3ccc([N+](=O)[O-])cc3s2)sc1C,1.62 µM,3.59 µM

Structure (SMILES),GI50,TGI
CN1CCN(CCCOc2cccc3nc(Nc4ccc(F)c(F)c4)ccc23)CC1,2.11 µM,6.73 µM
O=C(Oc1ccccc1)C(Br)C(Br)c1ccccc1 (stereo not drawn),1.61 µM,3.37 µM
COc1cc(NC(C)CCCNC(C)C)c2ncccc2c1OC (stereo not drawn),25.6 µM,> 100 µM
CC/C(Cc1ccccc1)=C(/c1ccc(O)cc1)c1ccc(OCCN2CCCC2)cc1,1.66 µM,3.28 µM
Cc1c(C)c2c(c(C)c1OCC(=O)O)CC[C@@](C)(CCC[C@@H](C)CCC[C@@H](C)CCCC(C)C)O2,58.1 µM,152 µM
O=C(/C=C/c1cc(Cl)ccc1Cl)Nc1ncc(Cc2ccc(Cl)cc2)s1,0.277 µM,3.08 µM
Cn1cc(C2=C(c3ccccc3C(F)(F)F)C(=O)NC2=O)c2ccccc21,11.6 µM,> 25 µM
CCN(CC)c1ccc(/C=N/NC(=O)CSc2nc3ccccc3c(=O)n2Cc2ccc(S(N)(=O)=O)cc2)c(O)c1,0.524 µM,5.03 µM
COc1ccc2[nH]c(C(=O)OCc3ccc4cccc(O)c4n3)cc2c1,1.37 µM,3.08 µM
COc1cc2nc(-c3cccc4cccnc34)nc(NC3CCN(Cc4ccccc4)CC3)c2cc1OC,1.43 µM,2.96 µM
C[C@H](NC(=O)c1c(C(F)F)nn(C)c1Oc1cccc(C(F)(F)F)c1)c1ccc(C(=O)O)cc1,> 100 µM,> 100 µM
COc1cc(Nc2ncnc(Nc3ccc4c(n3)NC(=O)C(C)(C)O4)n2)cc(OC)c1OC,0.522 µM,> 100 µM
C=C1C(=O)O[C@H]2[C@H]1CC/C(COC(=O)NCCc1cccc(OC)c1)=C\CC[C@@]1(C)O[C@@H]21,0.85 µM,3.27 µM
NCCOc1ncccc1/C=C1\c2ccccc2-c2ccc([N+](=O)[O-])cc21,0.0712 µM,0.351 µM
CCCCCCNC(=O)Oc1ccc(/C(=C(\C)c2ccc(Cl)cc2)c2ccc(OCCN(C)C)cc2)cc1,1.59 µM,3.12 µM
Cc1noc(C)c1-c1cnc2c(-c3ccc(C(=O)O)cc3)cn([C@@H](C)c3ccccn3)c2c1,0.309 µM,27.2 µM
COc1ccc(-c2nsc3c2NC(=O)CC3c2cccc(Cl)c2)cc1 (stereo not drawn),0.735 µM,11 µM
COc1cc(-c2nccc3cc4c(cc23)OCO4)cc(OC)c1OC,1.62 µM,6.24 µM
O=C(/C=C\n1cnc(-c2cc(C(F)(F)F)cc(C(F)(F)F)c2)n1)N1CC(F)(F)C1,0.697 µM,6.19 µM
CC(C)(C)c1nc(-c2cccc(NS(=O)(=O)c3c(F)cccc3F)c2F)c(-c2ccnc(N)n2)s1,31.7 µM,> 100 µM
CCOc1ccc(C(C)=O)cc1NC(=O)c1cccc(-c2nnn(CC)n2)c1,0.557 µM,6.07 µM

# From PubChem BioAssay (NCI)
